We go through 13 compounds from publication PMC9495348, “Polyfunctionalized α-Phenyl-tert-butyl(benzyl)nitrones: Multifunctional Antioxidants for Stroke Treatment” (Antioxidants, 2022).

Assay [1] can be described thus: Competition of the tested compounds with DMSO for hydroxyl radicals. The note with it: compounds assayed at 100 µM; n.a. = not active; no = no activity.
Assay [2] is described as follows: ABTS+ decolorization assay in ethanolic solution. As to conditions: compounds assayed at 100 µM; n.a. = not active.
Another assay addresses T1, soybean lipoxygenase (Glycine max, UniProt P08170).
T1 construct: purchased Aldrich Chemical Co. Milwaukee, WI, (USA)
T1 sequence (P08170 1-839): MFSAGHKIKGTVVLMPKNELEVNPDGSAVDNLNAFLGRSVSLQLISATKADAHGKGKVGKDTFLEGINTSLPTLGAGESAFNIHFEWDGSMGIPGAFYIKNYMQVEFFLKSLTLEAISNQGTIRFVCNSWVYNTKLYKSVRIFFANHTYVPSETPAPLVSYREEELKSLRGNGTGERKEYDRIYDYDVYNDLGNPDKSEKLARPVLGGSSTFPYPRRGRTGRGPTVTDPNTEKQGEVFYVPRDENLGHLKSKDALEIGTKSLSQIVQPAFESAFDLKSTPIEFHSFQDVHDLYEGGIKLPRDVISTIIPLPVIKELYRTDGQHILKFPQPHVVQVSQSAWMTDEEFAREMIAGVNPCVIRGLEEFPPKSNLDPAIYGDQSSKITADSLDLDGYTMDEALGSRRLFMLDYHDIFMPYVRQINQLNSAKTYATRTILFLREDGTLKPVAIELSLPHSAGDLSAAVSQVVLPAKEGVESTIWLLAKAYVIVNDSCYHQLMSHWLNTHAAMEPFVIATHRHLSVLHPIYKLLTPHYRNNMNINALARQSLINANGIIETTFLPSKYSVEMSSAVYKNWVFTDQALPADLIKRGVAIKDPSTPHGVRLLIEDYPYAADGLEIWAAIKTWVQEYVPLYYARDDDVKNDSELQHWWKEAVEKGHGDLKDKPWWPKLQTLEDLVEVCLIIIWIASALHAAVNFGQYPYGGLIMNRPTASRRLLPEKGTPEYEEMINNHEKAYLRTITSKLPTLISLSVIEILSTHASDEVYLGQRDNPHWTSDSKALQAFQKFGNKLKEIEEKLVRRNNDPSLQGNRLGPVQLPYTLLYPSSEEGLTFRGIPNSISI
As to the kind of experiment: In vitro inhibition of soybean LOX. The assay is classed as biochemical. The note with it: for IC50: soybean LOX, sodium linoleate 0.1 mM. The procedure: The in vitro study was performed as previously described. The compounds were incubated at room temperature with sodium linoleate (0.1 mM) and 0.2 mL of soybean lipoxygenase solution (1/9 × 10^–4 w/v in phosphate buffer saline). The method was based on the conversion of sodium linoleate to 13-hydroperoxylinoleic acid, which was detected by measuring absorbance at 234 nm. […] To determine the IC50 values, serial dilutions of compounds were used. Blank determination served as a negative control.

The nature of assay [3]: Inhibition of linoleic acid peroxidation (ILPO) induced by AAPH. The note with it: compounds assayed at 100 µM; n.a. = not active.
A short description of assay [4]: DPPH radical-scavenging assay. As to conditions: compounds assayed at 100 µM, DPPH 70 µM, 90 min; no = no activity. As for the experimental part: The assay was performed as previously described by incubating compounds at a concentration of 100 µM in the presence of 2,2-diphenyl-1-picrylhydrazyl radical (DPPH, 70 µM) in methanol for 90 min, protected from sun light. The absorbance at 517 nm was then determined using a Synergy™ H4 microplate reader (BioTek Instruments, Inc., Winooski, VT, USA). The experiments were performed in triplicate, and the blank (compound without DPPH) was substracted. The percentage of DPPH free radicals was calculated using the equation DPPH free radicals (%) = ((A0 − A1)/A0) × 100, where A0 is the absorbance of MeOH and A1 is the absorbance of the compound. Trolox and resveratrol were used as positive controls.

The next assay has as its target T2, Aβ1–42 (Homo sapiens, UniProt P05067).
T2 construct: HFIP-pretreated Aβ1–42 peptide Merck Millipore, Darmstadt, Germany; purchased Merck Millipore, Darmstadt, Germany
As to the kind of experiment: Inhibition of Aβ1–42 aggregation, Thioflavin-T assay. The note with it: 10 µM compound and 1.5 µM Aβ1–42, ThT assay. The assay is classed as biochemical. The procedure: Thioflavin-T (ThT) assay was performed to investigate the effect of the compounds on the aggregation of Aβ1–42 (HFIP-pretreated Aβ1–42 peptide Merck Millipore, Darmstadt, Germany). Prior to the incubations, 1 mM Aβ1–42 peptide stock solution in DMSO was diluted in 150 mM HEPES buffer (pH = 7.4, 150 mM NaCl) to obtain a concentration of 7.5 μM. Subsequently, 20 µL of Aβ1–42 ([…]) was mixed with the compounds (10 µM, final concentration) on black-walled 96-well plates and diluted with ThT solution (14.3 μM stock solution in HEPES-buffered solution; 10 μM final concentration). The final volume of the mixture was 100 μL, and the DMSO concentration was always 3% (v/v). Each sample was prepared in four technical replicates. ThT fluorescence (λex = 440 nm, λem = 490 nm) was measured using a microplate reader (Synergy™ H4, BioTek Instruments, Inc., Winooski, VT, USA) for 36–48 h. Inhibition of Aβ1–42 aggregation was expressed as the percent inhibition (% inh = (1 − Fi/F0) × 100), where Fi is the increase in fluorescence of compound-treated Aβ1–42, and F0 is the increase in fluorescence of non-treated Aβ1–42.

For assay [5], the system named is SH-SY5Y neuroblastoma cells. As to the kind of experiment: Neuroprotection against okadaic acid, MTT cell viability. The assay is classed as cell-based. As to conditions: okadaic acid 20 nM for 20 h, compounds 0.3–10 µM.
Setting [6] is: compounds assayed at 100 µM, n.a. = not active, no = no activity under the experimental conditions.

T2 sequence (P05067 672-713): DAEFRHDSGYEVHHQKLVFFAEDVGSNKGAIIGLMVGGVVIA

By inhibition is commonly meant the share of the control response that was lost under treatment. In the case of `CC(C)(C)/[N+]([O-])=C/c1ccccc1` [PBN, α-phenyl-N-tert-butylnitrone, reference compound], the “OH Scav. Capacity (%)” value in assay [1] is reported as “no”. For the same compound, the “ABTS+ (%)” value in assay [2] is on record as 5%. The inhibition at 100 µM at soybean lipoxygenase (setting [6]) was 23%. For the same compound, the “ILPO (%)” value in assay [3] is 11%. Besides, the DPPH entry in assay [4] was “no”.

`Cc1c(C)c2c(c(C)c1O)CCC(C)(C(=O)O)O2` (centres unmarked) [Trolox, reference compound]: in assay [1], the “OH Scav. Capacity (%)” value was 88%. Also, in assay [2], the “ABTS+ (%)” value is reported as 91%. In addition, the “ILPO (%)” value in assay [3] is recorded as 93%.

The term IC50 denotes the concentration at which inhibition is half-maximal. Consider `[O-]/[N+](=C\c1ccc(OCCCN2CCCCC2)cc1)Cc1ccccc1` [nitrone 1, (Z)-N-Benzyl-1-(4-(3-(piperidin-1-yl)propoxy)phenyl)methanimine oxide], for which the “OH Scav. Capacity (%)” value in assay [1] was determined as 7%. In addition, the inhibition at 10 µM on Aβ1–42 turned out to be 42.2 ± 5.7%. Further, the “ABTS+ (%)” value in assay [2] worked out at 27%. The compound also showed an IC50 against soybean lipoxygenase of 60 µM. The DPPH in assay [4] is 0. In addition, the “neuroprotective effect (augmented OA-reduced cell viability)” value in assay [5] was “statistically significant at 10 µM”.

`CC(C)(C)/[N+]([O-])=C/c1ccc(OCCCN2CCCCC2)cc1` [nitrone 2, (Z)-N-tert-Butyl-1-(4-(3-(piperidin-1-yl)propoxy)phenyl)methanimine oxide]: in assay [1], the “OH Scav. Capacity (%)” value is recorded as 54%. Also, the DPPH in assay [4] stood at 0.

With `[O-]/[N+](=C\c1cccc(OCCCN2CCCCC2)c1)Cc1ccccc1` [nitrone 3, (Z)-N-Benzyl-1-(3-(3-(piperidin-1-yl)propoxy)phenyl)methanimine oxide], the “ABTS+ (%)” value in assay [2] was 31%. In addition, the “ILPO (%)” value in assay [3] came out at 29%. Also, the DPPH in assay [4] is on record as 2.

As to `CC(C)(C)/[N+]([O-])=C/c1cccc(OCCCN2CCCCC2)c1` [nitrone 4, (Z)-N-tert-Butyl-1-(3-(3-(piperidin-1-yl)propoxy)phenyl)methanimine oxide], in assay [1], the “OH Scav. Capacity (%)” value was 54%. For the same compound, the “ABTS+ (%)” value in assay [2] came out at 23%. The compound further showed an inhibition at 100 µM on soybean lipoxygenase (setting [6]) of 37%. Moreover, the “ILPO (%)” value in assay [3] is 45%. The DPPH in assay [4] turned out to be 0.

With `[O-]/[N+](=C\c1ccccc1OCCCN1CCCCC1)Cc1ccccc1` [nitrone 5, (Z)-N-Benzyl-1-(2-(3-(piperidin-1-yl)propoxy)phenyl)methanimine oxide], in assay [1], the “OH Scav. Capacity (%)” value was found to be 9%. The “ABTS+ (%)” value in assay [2] stood at 19%. For the same compound, the IC50 on soybean lipoxygenase is 10 µM. Moreover, in assay [4], the DPPH amounted to 0.

Consider `CC(C)(C)/[N+]([O-])=C/c1ccccc1OCCCN1CCCCC1` [nitrone 6, (Z)-N-tert-Butyl-1-(2-(3-(piperidin-1-yl)propoxy)phenyl)methanimine oxide], for which the “OH Scav. Capacity (%)” value in assay [1] is 13%. At soybean lipoxygenase (setting [6]), the inhibition at 100 µM is 39%. In assay [4], the DPPH turned out to be 0.

In the case of `C#CCN1CCN(CCCOc2ccc(/C=[N+](\[O-])Cc3ccccc3)cc2)CC1` [nitrone 7, (Z)-N-Benzyl-1-(4-(3-(4-(prop-2-yn-1-yl)piperazin-1-yl)propoxy)phenyl) methanimine oxide], the “ABTS+ (%)” value in assay [2] is 28%. On soybean lipoxygenase (setting [6]), this compound showed an inhibition at 100 µM of 27.2%. The DPPH in assay [4] is given as 0.

For the compound `C#CCN1CCN(CCCOc2ccc(/C=[N+](\[O-])C(C)(C)C)cc2)CC1` [nitrone 8, (Z)-N-tert-Butyl-1-(4-(3-(4-(prop-2-yn-1-yl)piperazin-1-yl)propoxy)phenyl) methanimine oxide], in assay [1], the “OH Scav. Capacity (%)” value came out at 78%. The “ABTS+ (%)” value in assay [2] turned out to be 10%. At soybean lipoxygenase (setting [6]), 100 µM produced 23.3% inhibition. For the same compound, the DPPH in assay [4] is given as 0.

Turning to `C#CCN1CCN(CCCOc2cccc(/C=[N+](/[O-])Cc3ccccc3)c2)CC1` [nitrone 9, (E)-N-Benzyl-1-(3-(3-(4-(prop-2-yn-1-yl)piperazin-1-yl)propoxy)phenyl)methanimine oxide], the “OH Scav. Capacity (%)” value in assay [1] is reported as 81%. This compound had an IC50 against soybean lipoxygenase of 100 µM. Besides, in assay [4], the DPPH is reported as 1.

Consider `C#CCN1CCN(CCCOc2cccc(/C=[N+](\[O-])C(C)(C)C)c2)CC1` [nitrone 10, (Z)-N-tert-Butyl-1-(3-(3-(4-(prop-2-yn-1-yl)piperazin-1-yl)propoxy)phenyl) methanimine oxide], for which, in assay [1], the “OH Scav. Capacity (%)” value is 20%. The “ABTS+ (%)” value in assay [2] is 13%. Besides, the “LOX Inhibition (%)” value at soybean lipoxygenase (setting [6]) is recorded as “no”. The “ILPO (%)” value in assay [3] came out at 31%. Also, in assay [4], the DPPH worked out at 0.

For `C#CCN1CCN(CCCOc2ccccc2/C=[N+](\[O-])C(C)(C)C)CC1` [nitrone 12, (Z)-N-tert-Butyl-1-(2-(3-(4-(prop-2-yn-1-yl)piperazin-1-yl)propoxy)phenyl) methanimine oxide], in assay [1], the “OH Scav. Capacity (%)” value was found to be 9.8%. Moreover, in assay [2], the “ABTS+ (%)” value was determined as 13%. This compound also returned an inhibition at 100 µM at soybean lipoxygenase (setting [6]) of 25%. The “ILPO (%)” value in assay [3] worked out at 31%.
